Measured values as given in patent US20080045495A1, “Treatment of Patients with Cystic Disease by Alteration of Fibrocystin Proteolysis” (BOARD OF REGENTS, THE UNIVERSITY OF TEXAS SYSTEM, priority 2006, published 2008).
Square brackets hold non-standard residues; d marks the D form. Peptide text beside a SMILES is read from it. * marks the point of attachment. Nle = CCCC[C@H](N)C(=O)O; Cbz = O=C(OCc1ccccc1)*

Assays:
Type in all cases: cell-based, human
[1] = tested on: fibrocystin cleavage in HEK-293 cells; assay: Luciferase reporter assay of fibrocystin cleavage (pFC-GV / pG5-luc) in HEK-293 cells; conditions: for cleavage of fibrocystin or stability of proteolytic fragments (luciferase activity): HEK-293, 12 hours
Procedure: Reporter Gene Assays—mIMCD-3 cells, HEK-293 cells, or HeLa cells were plated in 6-well dishes (3×10^5 cells/well) and cotransfected with 0.05 μg phRL-TK(Int−) encoding Renilla luciferase (Promega, Madison, Wis.), 0.1 μg Photinus luciferase reporter plasmids, and 0.01-0.3 μg effector plasmids. Luciferase assays were performed as described previously (Hiesberger, 2004). Relative luciferase activity was calculated as the ratio of Photinus and Renilla luciferase.
(§1) FIG. 4 A is an image of a gel illustrating mIMCD3/FC cells were grown for 4 days and incubated with 0.1 μM thapsigargin (lane 2), 5 mM caffeine (lane 3), 75 μM dantrolene (lane 5), 200 μM ruthenium red (lane 7), or no additions (lanes 1, 4 and 6). After 2 hours, media were replaced with media lacking serum but containing the same supplements, and, in addition, 10 nM mifeprisone. Cell lysates were prepared after 24 hours and analyzed by immunoblotting using anti-V5 antibody. FIG. 4B is a graph of mIMCD-3 cells were transfected with 0.2 μg pG5-luc and either 0.2 μg pFC-GV or 0.2 μg pLDLR-GV. After 24 hours, cells were incubated in serum-free media in the presence or absence of 75 μM dantrolene. Relative luciferase activity was determined after 48 h. Data presented are mean ±SE of three separate transfections. The fibrocystin/Gal4-VP16 fusion protein is shown schematically below. Shaded box indicates the transmembrane segment; filled boxes indicate the N-terminal signal sequence and the C-terminal Gal4-VP16 fusion protein. FIG. 4C is an image of a gel illustrating HEK-293 cells transfected with 6 μg pFC-V5, and 8 hours later incubated in serum-free media containing 1-8 mM caffeine, 0.5 μM calphostin, or no additions. Cells were lysed after 16 h, and extracts were analyzed by immunoblotting using anti-V5 antibody. FIG. 4D is a graph of HEK-293 cells transfected with 0.2 μg pFC-GV and 0.2 μg pG5-luc. After 24 hours, cells were incubated in serum-free media containing 5 mM caffeine or no additions. Luciferase activity was measured after 12 hours. Data presented are mean ±SE of three separate transfections. FIG. 4E is an image of a gel illustrating HEK-293 cells stably expressing the m3 muscarinic receptor (lanes 1-4) and untransfected HEK-293 cells (lanes 5-8) were transfected with 6 μg pFC-V5. […] Cells were lysed after 16 hours, and extracts were analyzed by immunoblotting using anti-V5 antibody.
To quantitatively measure fibrocystin cleavage, a luciferase assay was developed that was similar to the ones employed to quantify the proteolytic cleavage of amyloid precursor protein (APP) and low density lipoprotein receptor related protein-1 (LRP1) (Cao, 2001; May, 2003). A plasmid (FC-GV) encoding the synthetic transcription factor Gal4-VP16 fused to the C-terminus of fibrocystin was generated. Proteolytic cleavage of the fibrocystin fusion protein releases Gal4-VP16, which translocates to the nucleus and activates a Gal4-responsive luciferase reporter gene (pG5-luc). Therefore, luciferase expression correlates with fibrocystin cleavage.
To quantify fibrocystin proteolysis in response to intracellular Ca^2+ release, the luciferase reporter assay was employed. HEK-293 cells were cotransfected with the plasmids pFC-GV and pG5-luc and incubated with either 5 mM caffeine or vehicle (as a control).
FIG. 5A is an image of a gel that illustrates HEK-293 cells were transfected with 6 μg pFC-V5.

[2] = tested on: fibrocystin cleavage in mIMCD3/FC cells; assay: Immunoblot (anti-V5) of fibrocystin proteolytic fragments in mIMCD3/FC cells; conditions: 30 hours; for cleavage of fibrocystin or stability of proteolytic fragments: FIG. 9
[3] = tested on: fibrocystin cleavage in HEK-293 cells; assay: Immunoblot (anti-V5) of fibrocystin proteolysis in HEK-293 cells transfected with pFC-V5
Procedure: as §1
FIG. 5A is an image of a gel that illustrates HEK-293 cells were transfected with 6 μg pFC-V5. […] Fourteen hours later, cellular proteins were extracted and analyzed by immunoblotting using anti-V5 antibody. FIG. 5B is an image of a gel mIMCD3/FC cells were grown for 4 days, and expression of fibrocystin was induced by addition of 10 nM mifepristone. After 24 hours, media were supplemented with 0.1, 0.5, or 1 μM calphostin C. Thirty hours later, cells were harvested, and proteins were analyzed by immunoblotting using anti-V5 antibody. FIG. 5C is an image of a gel illustrating HEK-293 cells were transfected with 3 μg pFC-V5 and either 3 μg of the empty vector pEF-neo (lanes 1 and 3) or 3 μg pEF-PKCαA/E (lanes 2 and 4). After 12 hours media were changed to media containing 10% FCS (lanes 1 and 2) or 0.2% BSA (lanes 3 and 4). Forty-eight hours later, cells were harvested, and proteins were subjected to immunoblotting using anti-V5 antibody. FIG. 5D is a plot illustrating HEK-293 cells transfected with 0.2 μg pG5-luc and 0.2 μg pFC-GV, pLDLR-GV and/or pEF-PKCαA/E. After 16 hours, media were changed to serum-free media containing 100 nM PMA or 500 μM Br-cAMP. Twenty-four hours later, cells were harvested, and relative luciferase activities were determined. Data are the mean ±SE of three independent transfections.

[4] = 0.1, 0.5, or 1 μM calphostin C 24 hours after induction, FIG. 5B

NCCOB(c1ccccc1)c1ccccc1 [2-APB]
cleavage of fibrocystin or stability of proteolytic fragments (luciferase activity) ([1]; 50 μg/ml 2-APB, FIG. 11): modulated

CCCC[C@@H](C=O)NC(=O)[C@H](CC(C)C)NC(=O)[C@H](CC(C)C)NC(C)=O [ALLN, Ac-Leu-Leu-Nle-CHO] (Ac-Leu-Leu-[Nle]-aldehyde)
cleavage of fibrocystin or stability of proteolytic fragments ([2]; 10 μM ALLN): altered | abundance of fibrocystin proteolytic fragments ([3]; 10 μM ALLN versus vehicle, 14 hours, HEK-293, FIG. 8): alteration of the abundance

C=C1[C@@H](C)[C@H]2[C@H](Cc3ccccc3)NC(=O)[C@]23OC(=O)/C=C/[C@H](O)CCC[C@@H](C)C/C=C/[C@H]3[C@@H]1O [Cytochalasin B]
cleavage of fibrocystin or stability of proteolytic fragments (luciferase activity) ([1]; 10 μM Cytochalasin B, FIG. 11): modulated

C/C1=C/C(=O)O[C@@H]2C[C@@H](CC[C@H](C)/C=C\CC1)O[C@@](O)([C@@H]1CSC(=O)N1)C2 [Latrunculin B]
cleavage of fibrocystin or stability of proteolytic fragments (luciferase activity) ([1]; 2 μg/ml Latrunculin, FIG. 11): modulated

CC(C)C[C@@H](C=O)NC(=O)[C@H](CC(C)C)NC(=O)[C@H](CC(C)C)NC(=O)OCc1ccccc1 [MG-132, Carbobenzoxy-L-leucyl-L-leucyl-L-leucinal] (Cbz-Leu-Leu-Leu-aldehyde)
fibrocystin cleavage products ([2]; 2 μM MG-132 in combination with 20 μM ATP, FIG. 7): increased presence of cleavage products | fibrocystin cleavage products ([2]; 2 μM MG-132 versus vehicle, FIG. 6): increase of fibrocystin cleavage products

COC(=O)Nc1nc2ccc(C(=O)c3cccs3)cc2[nH]1 [Nocodazole]
cleavage of fibrocystin or stability of proteolytic fragments (luciferase activity) ([1]; 10 μg/ml Nocodazole, FIG. 11): modulated

CCCCCCCCCCCCCC(=O)O[C@@H]1[C@@H](C)[C@@]2(O)[C@@H](C=C(CO)C[C@]3(O)C(=O)C(C)=C[C@@H]23)[C@@H]2C(C)(C)[C@]12OC(C)=O [PMA, phorbol 12-myristate 13-acetate]
increase of luciferase activity ([1]; 100 nM PMA, serum-free media, HEK-293, 24 hours, FIG. 5D): 27 fold | proteolytic cleavage of fibrocystin ([3]; 100 nM PMA, HEK-293, 14 hours, FIG. 5A): marked increase | total expression of fibrocystin (CMV promoter) ([3]; 100 nM PMA, HEK-293, FIG. 5A): increased

CC(=O)O[C@H]1C(=O)[C@@]2(C)[C@H]([C@H](OC(=O)c3ccccc3)[C@]3(O)C[C@H](OC(=O)[C@H](O)[C@@H](NC(=O)c4ccccc4)c4ccccc4)C(C)=C1C3(C)C)[C@]1(OC(C)=O)CO[C@@H]1C[C@@H]2O [Taxol]
cleavage of fibrocystin or stability of proteolytic fragments (luciferase activity) ([1]; Taxol in serum-free media, FIG. 10): modulated

CC(C)C[C@@H](C=O)NC(=O)[C@H](CC(C)C)NC(=O)[C@@H](NC(=O)OCc1ccccc1)C(C)C [Z-VLL-CHO, Z-Val-Leu-Leu-CHO] (Cbz-Val-Leu-Leu-aldehyde)
cleavage of fibrocystin or stability of proteolytic fragments ([2]; 15 μM Z-VLL-CHO): altered

C[N+](C)(C)CCOC(N)=O [carbachol]
fibrocystin cleavage ([3]; 100 μM carbachol, HEK-293 cells without m3 receptor, 16 hours, FIG. 4E): only in HEK-293(m3) cells

calphostin C
expression levels of fibrocystin [2, 4]: did not alter | fibrocystin proteolysis [2, 4]: dose-dependent inhibition | caffeine-induced fibrocystin proteolysis ([3]; 0.5 μM calphostin with caffeine, HEK-293, FIG. 4C): prevented | PMA-induced increase of proteolytic cleavage ([3]; pretreatment with 0.5 μM calphostin C, 100 nM PMA, HEK-293, FIG. 5A): prevented
